The source of these data is US9642808B2, “Extended release compositions comprising mycophenolate sodium and processes thereof” (PANACEA BIOTECH LIMITED, priority 2007, dated 2017).

SMILES strings stand for the structures. Where two headings read alike, the source gives them in different places.

For data set [1] the following is noted: cited from earlier work.
For data set [2] the following is noted: 423 de novo kidney allograft recipients; cited from earlier work.
Data set [3] is described as follows: pH-dependent solubility of the drug. The data set is classed as physicochemical. An excerpt:
The present invention provides a stable extended release single unit dosage form composition such as matrix tablets which could provide substantially linear drug release for a prolonged duration of time during the transit through varying pHs of the GIT.
The prior art formulation approaches lead to a pharmaceutical composition which has a suitable fast disintegration time but not necessarily a suitable dissolution rate of the active agent under acidic conditions, i.e. a multiparticulate composition in the form of a tablet with an extragranularly added disintegrant will rapidly disintegrate into granules but the dissolution of the drug substance from the composition and/or the disintegrated composition under acidic conditions may be unsuitable and, low due to the solubility properties of the active agent itself. The availability of an active agent with respect to absorption, i.e. entrance into the circulatory system, is dependant on the presence of the active agent in dissolved form as it is generally accepted that only dissolved substances are capable of passing the mucous membranes in the gastro-intestinal tract. Therefore, it is important that the dissolution of the active agent is suitably fast even under acidic conditions in order to enable absorption from the stomach so that the absorption of the active agent is continuous throughout the GIT, and the bioavailability is not compromised.

Setting [4] is: controlled de novo and maintenance renal studies.

As to `COc1c(C)c2c(c(O)c1C/C=C(\C)CCC(=O)OCCN1CCOCC1)C(=O)OC2` [MMF, mycophenolate mofetil], in data set [1] (setting [4]), the “Adverse Events (%): Anemia” value is given as 21.6%, the “Adverse Events (%): CMV infections” value is 20.2%, the “Adverse Events (%): Constipation” value was 38.0% and the “Adverse Events (%): Diarrhoea” value is recorded as 24.8%. Moreover, in data set [1] (setting [4]), the “Adverse Events (%): Dyspepsia” value is 22.5%, the “Adverse Events (%): Insomnia” value is on record as 23.5%, the “Adverse Events (%): Leukopenia” value was 19.2% and the “Adverse Events (%): Nausea” value is reported as 29.1%. Besides, in data set [1] (setting [4]), the “Adverse Events (%): Urinary Tract Infection” value is listed as 29.1% and the “Adverse Events (%): Vomiting” value is reported as 20%. For the same compound, the “incidence of GI adverse events” value in data set [2] is reported as 77.1%.
Consider `COc1c(C)c2c(c(O)c1C/C=C(\C)CCC(=O)O)C(=O)OC2` [MPS, mycophenolate sodium], for which, in data set [1] (setting [4]), the “Adverse Events (%): Anemia” value was 21.9%, the “Adverse Events (%): Constipation” value is listed as 39.5%, the “Adverse Events (%): Diarrhoea” value is listed as 23.5% and the “Adverse Events (%): Dyspepsia” value is 19%. Moreover, in data set [1] (setting [4]), the “Adverse Events (%): Insomnia” value is on record as 23.8%, the “Adverse Events (%): Leukopenia” value is 20.5%, the “Adverse Events (%): Nausea” value is 27.1% and the “Adverse Events (%): Urinary Tract Infection” value is 33.3%. In data set [1] (setting [4]), the “Adverse Events (%): Vomiting” value is recorded as 23%. In addition, the “Adverse Events (%): CMV infections” value in data set [1] (in vivo) is on record as 18.1%. Moreover, the “incidence of GI adverse events” value in data set [2] is 79.8%. Besides, the solubility result in data set [3] (pH above 6.0) was “high solubility”. Moreover, in data set [3] (pH below 6.0), the solubility result is “poor solubility”. Besides, the “solubility in an acidic medium” value in data set [3] (pH of from about 1 to about 3) is “substantially low solubility”.
